Data on 3 molecules can be found in paper PMC11036650, “Different Modes of Mechanism of Gamma-Mangostin and Alpha-Mangostin to Inhibit Cell Migration of Triple-Negative Breast Cancer Cells Concerning CXCR4 Downregulation and ROS Generation” (Iranian Journal of Pharmaceutical Research : IJPR, 2023).

Common to all, as to assay type: cell-based, human
For one data set, the system named is Farp. Description: qRT-PCR gene expression, Farp. Conditions: MDA-MB-231 cells, RT-qPCR. The procedure:
(§1) Total ribonucleic acid (RNA) upon treatment with γ-mangostin and α-mangostin was collected from cells using Sepasol (Nacalai Tesque, Japan). The reverse transcription of complementary deoxyribonucleic acid (cDNA) was performed using ReverTra Ace qPCR RT Kit (Toyobo, Japan), which included DNAse I to remove genomic DNA. Quantitative real-time reverse-transcription polymerase chain reaction (qRT-PCR) was performed using the Thunderbird SYBR qPCR Mix (Toyobo, Japan) on a Real-Time PCR System Light Cycler 96 (Roche, USA). Rac, Farp, CXCR4 ([28]), and latrophilin-2 (LPHN2) primers were used, and GAPDH was detected as the internal control.

A short description of data set [1]: Cell viability assay (CCK-8). Conditions: human. The procedure:
(§2) The MDA-MB-231 breast cancer cells were cultured in an L-15 medium, enriched with 15% fetal bovine serum (FBS) (Gibco, USA) and 1% penicillin-streptomycin (Gibco, USA), and incubated in CO2-free 37°C incubator.
(§3) The compounds γ-mangostin (#M6824) and α-mangostin (#M3824) were purchased from Sigma-Aldrich (USA). A suspension of cells (20,000 cells/well in 100 μL) was cultured in a 96-well plate. After an initial 24-hour incubation, γ-mangostin or α-mangostin of varying concentrations (1 - 100 μM) was added to the plate, followed by another 24-hour incubation. A solution of Cell Counting Kit-8 (CCK-8) (Dojindo #347-07621, Japan) was added to each well, and the plate was incubated for 2 hours. The absorbance was subsequently read at 450 nm using a microplate reader ([26]). The assay was carried out in triplicate.

Data set [2] relates to MDA-MB-231 cells. Description: Cell viability assay (CCK-8). As to conditions: MDA-MB-231 cells, 24 hours, CCK-8 assay, triplicate ± SD. On the procedure:
as §2, §3

In data set [3] the test system is MDA-MB-231 cells. The data set can be described thus: Migration assay (wound healing). Conditions: 10 μM, 24 and 42 hours, mitomycin C pretreatment, P < 0.05. The procedure:
A culture-insert 2 well (cat #ib81176) was placed in the well. Then, 5 × 10^4 cells were seeded on each side of the insert. After 24 hours, the medium was discarded and replaced with the fresh medium containing 0.5% FBS, and the cells were cultured for another 18 hours. The next day, the medium was replaced with 10 µg/mL mitomycin C (Wako #139-18711, Japan) and cultured for 2 hours before treatment with 10 μM γ-mangostin and 10 μM α-mangostin. Right after the treatment, the cells were observed under the microscope at 0 hour. At the indicated times (24 and 42 hours), the cell-free area from three parts (i.e., upper, center, and lower scratch) was measured by analyzing the gap closure rate using ImageJ software ([27]).

The next data set deals with CXCR4. Description: qRT-PCR gene expression, CXCR4. As to conditions: MDA-MB-231 cells, RT-qPCR. On the procedure: as §1
(In qPCR the cycle at which signal appears reflects the starting amount.)

The subject of data set [4] is MDA-MB-231 cells. Description: Intracellular ROS level measurement (DCFDA, flow cytometry). Conditions: for ROS accumulation: 10 µM. On the procedure: The MDA-MB-231 cells were collected in a buffer with 10% FBS in phosphate-buffered saline (PBS) and transferred in a sterile light-blocking microtube before being stained with 20 µM of 2’,7’-dichlorofluorescein diacetate (DCFDA) (Sigma #D6883, USA) and incubated for 30 minutes. Later, γ-mangostin and α-mangostin were added to the cell suspensions and incubated in a 37 °C incubator (with 5% CO2) before analyzing by a flow cytometer (Calibur) at indicated times (4, 8, 18, and 24 hours). 2’,7’-dichlorofluorescein diacetate reacted with the hydroxyl radicals (·OH) and transformed into fluorescent 2,7-dichlorofluorescein (DCF). The fluorescence intensity of DCF based on 5,000 cells per gate was calculated using the flow cytometer ([29], [30]). In a separate experiment, the cells already stained with DCFDA were treated with 5 mM N-acetyl-L-cysteine (NAC) (Wako #017-05131, Japan) and incubated for an hour before the treatment with γ-mangostin and α-mangostin for the next 24 hours, and the ROS level was subsequently measured. The assay was carried out in triplicate.
On the technique in general: A flow cytometer gives signals particle by particle.

The subject of another data set is LPHN2. Description: qRT-PCR gene expression, LPHN2. Conditions: MDA-MB-231 cells, RT-qPCR. The procedure: as §1
Where [5] appears, read: longer incubation up to 24 hours, P < 0.0001.

As a reminder, the viability is a read-out of living cells in per cent, often relative to untreated cells. A word on the IC50: it is the point on the concentration scale where inhibition reaches its midpoint.

The structures appear in SMILES notation. Like-named read-outs stand apart in the source and are kept apart here.

Take `CC(C)=CCc1c(O)cc2oc3cc(O)c(O)c(CC=C(C)C)c3c(=O)c2c1O` [γ-mangostin]: in the data set on Farp, the “expression of Farp (mRNA, normalized with GAPDH)” value is given as “downregulated”. In addition, in data set [1], the viability at 24 h, 10 µM stood at 80%. Further, the IC50 in the data set with MDA-MB-231 cells [2] (Homo sapiens, MDA-MB-231, 24 h) amounted to 25 µM; in the data set on MDA-MB-231 cells [2], 18 ± 5 µM. The “MDA-MB-231 cell migration (gap closure)” value in the data set on MDA-MB-231 cells [3] is “effectively inhibited MDA-MB-231 cell migration”. Also, in the data set on CXCR4, the “expression of CXCR4 (mRNA, normalized with GAPDH)” value is “downregulated”. For the same molecule, the results for the ROS accumulation entry in the data set with MDA-MB-231 cells [4] (after 4 hours) and in the data set on MDA-MB-231 cells [4] (setting [5]) were “decreased” and “started to rise”, respectively. Further, the “expression of LPHN2 (mRNA, normalized with GAPDH)” value in the data set on LPHN2 was “downregulated”.

As for `CC(=O)N[C@@H](CS)C(=O)O` [NAC, N-acetyl-L-cysteine, reference compound], the “amount of ROS induced by γ-mangostin and α-mangostin” value in the data set with MDA-MB-231 cells [4] (5 mM NAC for 1 hour before 10 µM mangostin for 24 hours, P < 0.0001) is “reduced”.

Consider `COc1c(O)cc2oc3cc(O)c(CC=C(C)C)c(O)c3c(=O)c2c1CC=C(C)C` [α-mangostin], for which the “expression of Farp (mRNA, normalized with GAPDH)” value in the data set on Farp is reported as “did not alter”. In addition, the viability at 24 h, 10 µM in data set [1] (MDA-MB-231 breast cancer cells, MDA-MB-231 cells, 10 µM concentration, read-out: cell viability) is 80%. Besides, the viability at 24 h in data set [1] (MDA-MB-231 breast cancer cells, MDA-MB-231 cells, concentration below 10 µM, 24 hours) lay within 80 to 90%. In the data set on MDA-MB-231 cells [2] (Homo sapiens), this molecule returned an IC50 of 20 µM. For the same molecule, the “MDA-MB-231 cell migration (gap closure)” value in the data set on MDA-MB-231 cells [3] is “a similar outcome was observed”. In the data set with CXCR4, the “expression of CXCR4 (mRNA, normalized with GAPDH)” value is on record as “did not alter”. Moreover, the results for the ROS accumulation result in the data set with MDA-MB-231 cells [4] (after 4 hours) and in the data set on MDA-MB-231 cells [4] (setting [5]) were “decreased” and “started to rise”, respectively. Besides, in the data set on LPHN2, the “expression of LPHN2 (mRNA, normalized with GAPDH)” value is on record as “did not alter”.
